Laboratory results taken from the NIST ThermoML archive (doi:10.1021/je7002447).

How the values were obtained:
[1] = excess molar enthalpy (molar enthalpy of mixing); xn = mol fraction of the nth substance listed; conditions: 298.15 K, 101.3 kPa, Liquid, Flow calorimetry
[2] = 298.15 K; 101.33 kPa; Liquid

ClCCc1ccccc1 [(2-chloroethyl)benzene] + c1ccccc1
[1]
Conditions | excess molar enthalpy [kJ/mol]
x1 = 0.1016 | 0.0309
x1 = 0.145 | 0.0375
x1 = 0.2028 | 0.044
x1 = 0.3115 | 0.0479
x1 = 0.4042 | 0.0469
x1 = 0.5044 | 0.0418
x1 = 0.5757 | 0.0358
x1 = 0.6706 | 0.0287
x1 = 0.7308 | 0.0243
x1 = 0.8028 | 0.0197
x1 = 0.8444 | 0.0148

ClCc1ccccc1 [(chloromethyl)benzene] + Clc1ccccc1
[1]
Conditions | excess molar enthalpy [kJ/mol]
x2 = 0.1118 | 0.0601
x2 = 0.2012 | 0.0901
x2 = 0.2742 | 0.102
x2 = 0.335 | 0.113
x2 = 0.4304 | 0.12
x2 = 0.5312 | 0.114
x2 = 0.6018 | 0.106
x2 = 0.6939 | 0.0922
x2 = 0.7514 | 0.0783
x2 = 0.8193 | 0.0626
x2 = 0.858 | 0.0515

ClCCc1ccccc1 [(2-chloroethyl)benzene] + CCCCc1ccccc1
[1]
Conditions | excess molar enthalpy [kJ/mol]
x1 = 0.1063 | 0.0994
x1 = 0.1295 | 0.117
x1 = 0.1655 | 0.143
x1 = 0.2293 | 0.185
x1 = 0.3085 | 0.217
x1 = 0.373 | 0.236
x1 = 0.4424 | 0.253
x1 = 0.4716 | 0.254
x1 = 0.5434 | 0.255
x1 = 0.6134 | 0.248
x1 = 0.7041 | 0.226
x1 = 0.7604 | 0.199
x1 = 0.8264 | 0.16
x1 = 0.8639 | 0.132
x1 = 0.9225 | 0.0817

ClCc1ccccc1 [(chloromethyl)benzene] + CCCCc1ccccc1
[1]
Conditions | excess molar enthalpy [kJ/mol]
x1 = 0.1194 | 0.138
x1 = 0.145 | 0.168
x1 = 0.2028 | 0.201
x1 = 0.2532 | 0.249
x1 = 0.3114 | 0.277
x1 = 0.4041 | 0.305
x1 = 0.5043 | 0.319
x1 = 0.5756 | 0.315
x1 = 0.6439 | 0.298
x1 = 0.7307 | 0.259
x1 = 0.7834 | 0.219
x1 = 0.8444 | 0.173
x1 = 0.8906 | 0.123
x1 = 0.9313 | 0.0852

ClCCCc1ccccc1 [(3-chloropropyl)benzene]
Conditions | mass density [kg/m3]
[2] | 1041.84

ClCc1ccccc1 [(chloromethyl)benzene]
Conditions | mass density [kg/m3]
[2] | 1094.82

Cc1ccccc1 [toluene]
Conditions | mass density [kg/m3]
[2] | 862.19

Clc1ccccc1 [chlorobenzene] + c1ccccc1
[1]
Conditions | excess molar enthalpy [kJ/mol]
x1 = 0.0804 | -0.0021
x1 = 0.1272 | -0.0028
x1 = 0.1794 | -0.0039
x1 = 0.2258 | -0.0046
x1 = 0.3043 | -0.0051
x1 = 0.3684 | -0.0055
x1 = 0.3962 | -0.0058
x1 = 0.4666 | -0.0057
x1 = 0.5384 | -0.0054
x1 = 0.5675 | -0.0055
x1 = 0.6363 | -0.0049
x1 = 0.6999 | -0.0042
x1 = 0.7777 | -0.0036
x1 = 0.8235 | -0.0031
x1 = 0.8974 | -0.0017

ClCc1ccccc1 [(chloromethyl)benzene] + Cc1ccccc1
[1]
Conditions | excess molar enthalpy [kJ/mol]
x1 = 0.1036 | 0.0241
x1 = 0.1877 | 0.0387
x1 = 0.2574 | 0.0471
x1 = 0.3161 | 0.0535
x1 = 0.3813 | 0.0585
x1 = 0.4803 | 0.06
x1 = 0.581 | 0.0555
x1 = 0.649 | 0.0519
x1 = 0.735 | 0.0454
x1 = 0.7871 | 0.0395
x1 = 0.8809 | 0.0239
x1 = 0.9024 | 0.0214

ClCCCc1ccccc1 [(3-chloropropyl)benzene] + c1ccccc1
[1]
Conditions | excess molar enthalpy [kJ/mol]
x1 = 0.0913 | -0.0096
x1 = 0.1843 | -0.02
x1 = 0.2316 | -0.0229
x1 = 0.3113 | -0.03
x1 = 0.376 | -0.0344
x1 = 0.4455 | -0.0363
x1 = 0.5466 | -0.0363
x1 = 0.6164 | -0.0343
x1 = 0.7068 | -0.0295
x1 = 0.7834 | -0.0238
x1 = 0.8282 | -0.0199
x1 = 0.8577 | -0.0174

ClCCCc1ccccc1 [(3-chloropropyl)benzene] + CCCCc1ccccc1
[1]
Conditions | excess molar enthalpy [kJ/mol]
x1 = 0.1167 | 0.0307
x1 = 0.209 | 0.0593
x1 = 0.2605 | 0.0699
x1 = 0.3458 | 0.0824
x1 = 0.4134 | 0.0902
x1 = 0.5138 | 0.0948
x1 = 0.5849 | 0.0932
x1 = 0.6132 | 0.0896
x1 = 0.6789 | 0.0809
x1 = 0.7381 | 0.0718
x1 = 0.8087 | 0.0573
x1 = 0.9136 | 0.0314

Clc1ccccc1 [chlorobenzene] + Cc1ccccc1
[1]
Conditions | excess molar enthalpy [kJ/mol]
x1 = 0.1156 | -0.0528
x1 = 0.2072 | -0.0828
x1 = 0.2584 | -0.0944
x1 = 0.3433 | -0.109
x1 = 0.4107 | -0.114
x1 = 0.5111 | -0.115
x1 = 0.6106 | -0.107
x1 = 0.6765 | -0.0963
x1 = 0.807 | -0.0675
x1 = 0.9127 | -0.0334

CCCc1ccccc1 [propylbenzene]
Conditions | mass density [kg/m3]
[2] | 857.62

CCc1ccccc1 [ethylbenzene]
Conditions | mass density [kg/m3]
[2] | 862.55

ClCc1ccccc1 [(chloromethyl)benzene] + CCc1ccccc1
[1]
Conditions | excess molar enthalpy [kJ/mol]
x1 = 0.0962 | 0.0523
x1 = 0.1664 | 0.0757
x1 = 0.2102 | 0.0874
x1 = 0.2853 | 0.101
x1 = 0.4151 | 0.118
x1 = 0.5156 | 0.119
x1 = 0.5866 | 0.116
x1 = 0.6804 | 0.104
x1 = 0.7395 | 0.0922
x1 = 0.8098 | 0.0755
x1 = 0.8646 | 0.0571
x1 = 0.8949 | 0.0418

ClCCCc1ccccc1 [(3-chloropropyl)benzene] + CCc1ccccc1
[1]
Conditions | excess molar enthalpy [kJ/mol]
x1 = 0.0766 | -0.0197
x1 = 0.1214 | -0.0289
x1 = 0.1717 | -0.0373
x1 = 0.2372 | -0.0432
x1 = 0.2931 | -0.0464
x1 = 0.3835 | -0.0504
x1 = 0.4534 | -0.0504
x1 = 0.5251 | -0.0491
x1 = 0.5544 | -0.0476
x1 = 0.6239 | -0.0431
x1 = 0.7133 | -0.0348
x1 = 0.7684 | -0.0301
x1 = 0.8327 | -0.0217
x1 = 0.8924 | -0.014

ClCc1ccccc1 [(chloromethyl)benzene] + CCCc1ccccc1
[1]
Conditions | excess molar enthalpy [kJ/mol]
x1 = 0.1315 | 0.111
x1 = 0.2325 | 0.159
x1 = 0.3124 | 0.196
x1 = 0.3772 | 0.209
x1 = 0.4468 | 0.221
x1 = 0.5478 | 0.227
x1 = 0.645 | 0.203
x1 = 0.7079 | 0.185
x1 = 0.7842 | 0.144
x1 = 0.8289 | 0.102
x1 = 0.8791 | 0.0855
x1 = 0.9065 | 0.0643

ClCCCc1ccccc1 [(3-chloropropyl)benzene] + CCCc1ccccc1
[1]
Conditions | excess molar enthalpy [kJ/mol]
x1 = 0.0863 | 0.0037
x1 = 0.136 | 0.0066
x1 = 0.191 | 0.0092
x1 = 0.2394 | 0.0116
x1 = 0.3207 | 0.0137
x1 = 0.3863 | 0.0164
x1 = 0.4145 | 0.0172
x1 = 0.4856 | 0.0186
x1 = 0.5573 | 0.0195
x1 = 0.5861 | 0.0194
x1 = 0.6538 | 0.0194
x1 = 0.7157 | 0.0177
x1 = 0.7391 | 0.0179
x1 = 0.7906 | 0.0158
x1 = 0.8343 | 0.013
x1 = 0.9042 | 0.009
x1 = 0.9189 | 0.008

ClCCc1ccccc1 [(2-chloroethyl)benzene] + Cc1ccccc1
[1]
Conditions | excess molar enthalpy [kJ/mol]
x1 = 0.075 | -0.0003
x1 = 0.092 | 0
x1 = 0.1686 | 0.0008
x1 = 0.2332 | 0.0021
x1 = 0.2885 | 0.0027
x1 = 0.3782 | 0.0046
x1 = 0.4478 | 0.0055
x1 = 0.5195 | 0.007
x1 = 0.5488 | 0.0074
x1 = 0.6186 | 0.0079
x1 = 0.6838 | 0.0077
x1 = 0.7643 | 0.0073
x1 = 0.8122 | 0.0068
x1 = 0.8439 | 0.0061
x1 = 0.8902 | 0.0048
x1 = 0.9068 | 0.0041

CCCc1ccccc1 [propylbenzene] + Clc1ccccc1
[1]
Conditions | excess molar enthalpy [kJ/mol]
x2 = 0.1205 | -0.0505
x2 = 0.1859 | -0.0678
x2 = 0.2551 | -0.0883
x2 = 0.3394 | -0.102
x2 = 0.4066 | -0.109
x2 = 0.4774 | -0.116
x2 = 0.5781 | -0.109
x2 = 0.6727 | -0.101
x2 = 0.7851 | -0.079
x2 = 0.8796 | -0.0495
x2 = 0.9164 | -0.0327

ClCCc1ccccc1 [(2-chloroethyl)benzene] + CCc1ccccc1
[1]
Conditions | excess molar enthalpy [kJ/mol]
x1 = 0.105 | 0.0334
x1 = 0.19 | 0.0502
x1 = 0.2603 | 0.062
x1 = 0.3194 | 0.0757
x1 = 0.3849 | 0.0799
x1 = 0.4841 | 0.0847
x1 = 0.5847 | 0.0809
x1 = 0.6524 | 0.0771
x1 = 0.7379 | 0.0665
x1 = 0.7897 | 0.0601
x1 = 0.8825 | 0.0348
x1 = 0.9037 | 0.0268

c1ccccc1 [benzene]
Conditions | mass density [kg/m3]
[2] | 873.58

CCCCc1ccccc1 [butylbenzene] + Clc1ccccc1
[1]
Conditions | excess molar enthalpy [kJ/mol]
x2 = 0.133 | -0.0407
x2 = 0.1609 | -0.0482
x2 = 0.2036 | -0.0581
x2 = 0.2772 | -0.0742
x2 = 0.3383 | -0.0834
x2 = 0.4341 | -0.0917
x2 = 0.535 | -0.0874
x2 = 0.6054 | -0.081
x2 = 0.6971 | -0.0687
x2 = 0.8036 | -0.0555
x2 = 0.902 | -0.0344

ClCCc1ccccc1 [(2-chloroethyl)benzene]
Conditions | mass density [kg/m3]
[2] | 1066.91

ClCCc1ccccc1 [(2-chloroethyl)benzene] + CCCc1ccccc1
[1]
Conditions | excess molar enthalpy [kJ/mol]
x1 = 0.1173 | 0.0724
x1 = 0.1375 | 0.0783
x1 = 0.1662 | 0.0925
x1 = 0.2099 | 0.111
x1 = 0.285 | 0.138
x1 = 0.347 | 0.152
x1 = 0.4147 | 0.165
x1 = 0.4436 | 0.169
x1 = 0.5152 | 0.172
x1 = 0.5863 | 0.169
x1 = 0.6145 | 0.162
x1 = 0.6801 | 0.154
x1 = 0.7392 | 0.133
x1 = 0.8096 | 0.11
x1 = 0.85 | 0.093
x1 = 0.914 | 0.0577

ClCCCc1ccccc1 [(3-chloropropyl)benzene] + Cc1ccccc1
[1]
Conditions | excess molar enthalpy [kJ/mol]
x1 = 0.1072 | -0.0523
x1 = 0.1526 | -0.069
x1 = 0.1936 | -0.0816
x1 = 0.2648 | -0.0969
x1 = 0.3244 | -0.106
x1 = 0.3507 | -0.106
x1 = 0.4187 | -0.114
x1 = 0.4899 | -0.108
x1 = 0.5193 | -0.107
x1 = 0.5903 | -0.102
x1 = 0.6576 | -0.0911
x1 = 0.6836 | -0.0857
x1 = 0.7423 | -0.0752
x1 = 0.8121 | -0.0571
x1 = 0.8781 | -0.0369

Clc1ccccc1 [chlorobenzene] + CCc1ccccc1
[1]
Conditions | excess molar enthalpy [kJ/mol]
x1 = 0.1075 | -0.0549
x1 = 0.1308 | -0.0655
x1 = 0.1671 | -0.078
x1 = 0.2864 | -0.115
x1 = 0.3111 | -0.121
x1 = 0.4453 | -0.14
x1 = 0.4745 | -0.145
x1 = 0.5463 | -0.143
x1 = 0.6436 | -0.126
x1 = 0.7625 | -0.109
x1 = 0.8784 | -0.0627
x1 = 0.9233 | -0.04

Clc1ccccc1 [chlorobenzene]
Conditions | mass density [kg/m3]
[2] | 1101.17

CCCCc1ccccc1 [butylbenzene]
Conditions | mass density [kg/m3]
[2] | 856.29
